According to patent US12030876B2, “Aryl hydrocarbon receptor (AHR) agonists and uses thereof” (Ikena Oncology, Inc., priority 2019, dated 2024):

The compounds below were run against T1, AHR (Homo sapiens, UniProt P35869) (assay: DRE-Luciferase Reporter Assay, HepG2 (agonist)). Settings: DRE-Luc HepG2 - Agonist: Average EC50 (μM), HepG2, Table 2.
T1 construct: endogenous in cells; host or cells: HepG2 (human), transfected with a DRE-luciferase reporter only
T1 sequence (P35869 11-848): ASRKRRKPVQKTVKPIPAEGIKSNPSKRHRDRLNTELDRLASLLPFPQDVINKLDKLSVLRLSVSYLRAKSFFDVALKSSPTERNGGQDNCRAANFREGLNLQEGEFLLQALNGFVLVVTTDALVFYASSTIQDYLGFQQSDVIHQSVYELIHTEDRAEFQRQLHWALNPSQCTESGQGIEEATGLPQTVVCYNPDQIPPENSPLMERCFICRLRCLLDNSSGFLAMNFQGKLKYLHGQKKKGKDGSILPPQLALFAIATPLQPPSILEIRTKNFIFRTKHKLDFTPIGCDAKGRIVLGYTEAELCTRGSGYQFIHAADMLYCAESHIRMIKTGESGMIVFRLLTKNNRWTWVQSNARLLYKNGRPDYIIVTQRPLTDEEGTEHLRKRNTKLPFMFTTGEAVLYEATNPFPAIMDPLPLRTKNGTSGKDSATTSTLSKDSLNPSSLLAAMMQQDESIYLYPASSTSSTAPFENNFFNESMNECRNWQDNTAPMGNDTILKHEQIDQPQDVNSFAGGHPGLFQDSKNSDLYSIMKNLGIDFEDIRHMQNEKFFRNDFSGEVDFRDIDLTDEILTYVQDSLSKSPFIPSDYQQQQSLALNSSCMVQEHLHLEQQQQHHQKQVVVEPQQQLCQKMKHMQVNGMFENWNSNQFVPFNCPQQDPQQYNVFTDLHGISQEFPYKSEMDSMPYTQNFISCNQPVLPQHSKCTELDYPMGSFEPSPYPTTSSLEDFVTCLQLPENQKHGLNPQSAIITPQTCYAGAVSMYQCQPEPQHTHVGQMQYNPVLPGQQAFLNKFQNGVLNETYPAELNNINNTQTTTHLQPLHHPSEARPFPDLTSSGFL
Format: cell-based
Procedure: DRE-Luciferase Reporter Assay
AHR binds to Dioxin Responsive Elements (DRE) upstream of genes that it activates. One measure of AHR activity is activation of a reporter gene, such as luciferase, downstream of one or multiple DRE elements. Luciferase activity reflects activation and inhibition of AHR in the cells expressing this reporter.
Murine Hepa1-6 or Hepa-1c1c7 or other murine cell line with a DRE-luciferase reporter either stably or transiently transfected are plated in media in plates (96-well, 384-well or other plates) and incubated overnight at 37 C in a CO2 incubator. Likewise, human HepG2 or other human cell line with a DRE-luciferase reporter either stably or transiently transfected are plated in media in plates (96-well, 384-well or other plates) and incubated overnight at 37 C in a CO2 incubator.
The next day, an AHR agonist compound is added. Cells are incubated for 6, 16 or 24 hours or another time point and then lysed for determination of luciferase activity as a read-out of the AHR activation. Luciferase can be measured with a commercial kit such as the Promega Luciferase kit or any kit or reagents that provide the luciferin substrate for measuring luciferase activity. The level of luciferase with only activating ligand (e.g. such as TCDD, kynurenine, ITE (2-(1H-indole-3-ylcarbonyl)-4-thiazolecarboxylic methyl ester), VAF347, BNF (beta-naphthoflavone), ICZ (6-formylindolo(3,2-b) carbazole or other AHR ligands) added is the maximum signal while the luciferase with no ligand is the minimum signal. EC50s can be determined as the concentration which activates half of the maximum luciferase activity.
`c1ccc(Nc2nc(-c3ccccc3)cs2)cc1` [Compound P-14] showed an EC50 greater than 1 µM.

Same assay, conditions: DRE-Luc HepG2 - Agonist: Average EC50 (μM), HepG2, Table 3
`O=C(O)c1cccc(Nc2nc(-c3cccc([N+](=O)[O-])c3)cs2)c1` [I-81] gave an EC50 greater than 1 µM.

Same assay, conditions: HepG2, Table 2; read-out: DRE-Luc HepG2 - Agonist: Average EC50
`C[N+](C)(CCO)CCOCCN(c1ccc(C(F)(F)F)cc1)c1nc(-c2cccc(Cl)c2)cs1` [I-52] gave an EC50 greater than 1 µM.
`FC(F)(F)c1ccc(Nc2ncc(-c3ccccc3Cl)o2)cc1` [I-62] gave an EC50 of 0.1 to 1 µM.
With `FC(F)(F)c1ccc(Nc2nnc(-c3cccc(Cl)c3)o2)cc1` [I-64] the EC50 was greater than 1 µM.
`C[N+](C)(CCO)CCOCCN(c1cccc(C(F)(F)F)c1)c1nc(-c2cccc(Cl)c2)cs1` [I-45] was tested, and the EC50 was 0.1 to 1 µM.
In the case of `C[N+](C)(C)CCOc1ccc(-c2cnc(Nc3ccc(C(F)(F)F)cc3)o2)cc1` [I-73], the EC50 is reported as greater than 1 µM.
`C[N+](C)(C)CCOc1cccc(-c2cnc(Nc3ccc(C(F)(F)F)cc3)o2)c1` [I-72] showed an EC50 greater than 1 µM.
With `CN(C)CCOc1ccc(-c2cnc(Nc3ccc(C(F)(F)F)cc3)o2)cc1` [I-74] the EC50 was greater than 1 µM.
In the case of `FC(F)(F)c1ccc(Nc2nc(-c3cccc(Cl)c3)co2)cc1` [I-63], the EC50 is reported as 0.1 to 1 µM.
Compound `Cn1c(-c2cccc(Cl)c2)cnc1Nc1cccc(C(F)(F)F)c1` [I-71] has an EC50 greater than 1 µM.
`FC(F)(F)c1ccc(Nc2nnc(-c3cccc(Cl)c3)[nH]2)cc1` [I-65] gave an EC50 greater than 1 µM.
`C[N+](C)(CCOCCN(c1cccc(C(F)(F)F)c1)c1nc(-c2cccc(Cl)c2)cs1)CC(=O)O` [I-51] gave an EC50 greater than 1 µM.
Work on `CN(C)CCOc1cccc(-c2cnc(Nc3ccc(C(F)(F)F)cc3)o2)c1` [I-69] yielded an EC50 greater than 1 µM.
With `Oc1ccccc1-c1cnc(Nc2ccc(C(F)(F)F)cc2)o1` [I-75] the EC50 was greater than 1 µM.
For `Cn1cc(-c2cccc(Cl)c2)nc1Nc1cccc(C(F)(F)F)c1` [I-70], the EC50 was greater than 1 µM.
`Oc1cccc(-c2cnc(Nc3ccc(C(F)(F)F)cc3)o2)c1` [I-68] showed an EC50 greater than 1 µM.
In the case of `Oc1ccc(-c2cnc(Nc3ccc(C(F)(F)F)cc3)o2)cc1` [I-67], the EC50 is reported as greater than 1 µM.

Same assay, conditions: HepG2, Table 3; read-out: DRE-Luc HepG2 - Agonist: Average EC50
`[O-][n+]1ccccc1-c1csc(Nc2cccc(C(F)(F)F)c2)n1` [I-94] showed an EC50 greater than 1 µM.
`[O-][n+]1cccc(-c2noc(Nc3cccc(C(F)(F)F)c3)n2)c1` [I-150] showed an EC50 greater than 1 µM.
With `N#Cc1cc(C(=O)O)cc(-c2csc(Nc3cccc(C(F)(F)F)c3)n2)c1` [I-95] the EC50 was greater than 1 µM.
`[O-][n+]1cccc(-c2cc(Nc3cccc(C(F)(F)F)c3)no2)c1` [I-131] was tested, and the EC50 was greater than 1 µM.
Work on `N#Cc1cccc(-c2cc(Nc3cccc(C(F)(F)F)c3)no2)c1` [I-151] yielded an EC50 greater than 1 µM.
Work on `[O-][n+]1cccc(-c2cnc(Nc3cccc(C(F)(F)F)c3)o2)c1` [I-123] yielded an EC50 greater than 1 µM.
For `CN(CCNC(=O)N(c1cccc(C(F)(F)F)c1)c1nc(-c2cccc(Cl)c2)cs1)CC(=O)O` [I-86], the EC50 was less than 0.01 µM.
With `C[n+]1cccc(-c2csc(N(C(=O)NCCC[N+](C)(C)C)c3cccc(C(F)(F)F)c3)n2)c1` [I-98] the EC50 was 0.1 to 1 µM.
`O=S(=O)(O)c1cccc(-c2csc(Nc3cccc(C(F)(F)F)c3)n2)c1` [I-85] showed an EC50 greater than 1 µM.
`NC(=O)c1cc(-c2csc(Nc3cccc(C(F)(F)F)c3)n2)c[n+]([O-])c1` [I-99] showed an EC50 greater than 1 µM.
In the case of `C[N+](C)(C)CCNC(=O)N(c1cccc(C(F)(F)F)c1)c1nc(-c2ccc[n+]([O-])c2)cs1` [I-118], the EC50 is reported as 0.1 to 1 µM.
Work on `[O-][n+]1cccc(-c2cc(Nc3cccc(C(F)(F)F)c3)on2)c1` [I-140] yielded an EC50 greater than 1 µM.
Work on `COC(=O)c1cncc(-c2csc(Nc3cccc(C(F)(F)F)c3)n2)c1` [I-102] yielded an EC50 greater than 1 µM.
Work on `[O-][n+]1cccc(-c2csc(Nc3cncc(C(F)(F)F)c3)n2)c1` [I-122] yielded an EC50 greater than 1 µM.
`CSc1cccc(Nc2nc(-c3cc[nH]c(=O)c3)cs2)c1` [I-142] gave an EC50 greater than 1 µM.
With `COC(=O)c1cc(-c2csc(Nc3cccc(C(F)(F)F)c3)n2)c[n+]([O-])c1` [I-127] the EC50 was 0.1 to 1 µM.
For `N#Cc1cccc(-c2coc(Nc3cccc(C(F)(F)F)c3)n2)c1` [I-124], the EC50 was greater than 1 µM.
`O=c1cc(-c2nc(Nc3cccc(C(F)(F)F)c3)no2)cc[nH]1` [I-133] gave an EC50 of 0.1 to 1 µM.
With `O=c1cc(-c2cc(Nc3cccc(C(F)(F)F)c3)on2)cc[nH]1` [I-137] the EC50 was greater than 1 µM.
Work on `O=C(O)c1cc(-c2csc(Nc3cccc(C(F)(F)F)c3)n2)c[n+]([O-])c1` [I-111] yielded an EC50 greater than 1 µM.
Compound `O=[N+]([O-])c1cccc(-c2csc(Nc3cccc(S(=O)(=O)O)c3)n2)c1` [I-103] has an EC50 greater than 1 µM.
With `C[N+]1(C)CCN(C(=O)c2cccc(Nc3nc(-c4cccc([N+](=O)[O-])c4)cs3)c2)CC1` [I-88] the EC50 was greater than 1 µM.
With `NC(=O)c1cccc(Nc2nc(-c3cccc([N+](=O)[O-])c3)cs2)c1` [I-82] the EC50 was greater than 1 µM.
Work on `O=c1cc(-c2cnc(Nc3cccc(C(F)(F)F)c3)o2)cc[nH]1` [I-126] yielded an EC50 greater than 1 µM.
Compound `NC(=O)c1cccc(-c2csc(Nc3cncc(C(F)(F)F)c3)n2)c1` [I-105] has an EC50 greater than 1 µM.
`O=C(O)c1cccc(Nc2nc(-c3ccc[n+]([O-])c3)cs2)c1` [I-116] gave an EC50 greater than 1 µM.
Compound `O=c1cc(-c2noc(Nc3cccc(C(F)(F)F)c3)n2)cc[nH]1` [I-135] has an EC50 greater than 1 µM.
Work on `N#Cc1cccc(-c2cc(Nc3cccc(C(F)(F)F)c3)on2)c1` [I-138] yielded an EC50 greater than 1 µM.
For `COc1cc(-c2csc(Nc3cccc(SC)c3)n2)ccn1` [I-141], the EC50 was greater than 1 µM.
`COC(=O)c1cccc(Nc2nc(-c3cccc(C#N)c3)cs2)c1` [I-104] gave an EC50 greater than 1 µM.
`O=C(O)c1cc(-c2csc(Nc3cccc(C(F)(F)F)c3)n2)cc([N+](=O)[O-])c1` [I-78] showed an EC50 greater than 1 µM.
In the case of `[O-][n+]1cccc(-c2nc(Nc3cccc(C(F)(F)F)c3)no2)c1` [I-134], the EC50 is reported as greater than 1 µM.
With `O=[N+]([O-])c1cccc(-c2csc(Nc3ccc(C(F)(F)F)cc3)n2)c1` [I-84] the EC50 was 0.01 to 0.1 µM.
Compound `NC(=O)c1cccc(-c2csc(Nc3cccc(C(F)(F)F)n3)n2)c1` [I-119] has an EC50 of less than 0.01 µM.
Compound `O=C(O)c1cncc(-c2csc(Nc3cccc(C(F)(F)F)c3)n2)c1` [I-79] has an EC50 greater than 1 µM.
In the case of `N#Cc1cc(Cl)cc(-c2csc(Nc3cccc(C(F)(F)F)c3)n2)c1` [I-80], the EC50 is reported as 0.01 to 0.1 µM.
With `N#Cc1cccc(-c2csc(Nc3cccc(C(=O)O)c3)n2)c1` [I-114] the EC50 was greater than 1 µM.
Compound `COC(=O)c1cc(C#N)cc(-c2csc(Nc3cccc(C(F)(F)F)c3)n2)c1` [I-113] has an EC50 greater than 1 µM.
For `NC(=O)c1cc(-c2csc(Nc3cccc(C(F)(F)F)c3)n2)cc([N+](=O)[O-])c1` [I-101], the EC50 was greater than 1 µM.
`CSc1cccc(-c2csc(Nc3cccc(C(F)(F)F)c3)n2)c1` [I-132] gave an EC50 greater than 1 µM.
With `O=[N+]([O-])c1cccc(-c2csc(Nc3cncc(C(F)(F)F)c3)n2)c1` [I-96] the EC50 was less than 0.01 µM.
Work on `[O-][n+]1cccc(-c2csc(Nc3ccc(C(F)(F)F)cc3)n2)c1` [I-129] yielded an EC50 of 0.1 to 1 µM.
`COC(=O)c1cccc(-c2csc(Nc3cccc(C(F)(F)F)c3)n2)c1` [I-106] was tested, and the EC50 was 0.1 to 1 µM.
For `N#Cc1cc(-c2csc(Nc3cccc(C(F)(F)F)c3)n2)cc([N+](=O)[O-])c1` [I-115], the EC50 was greater than 1 µM.
Work on `COC(=O)c1cc(-c2csc(Nc3cccc(C(F)(F)F)c3)n2)cc([N+](=O)[O-])c1` [I-108] yielded an EC50 of 0.1 to 1 µM.
Work on `C[N+](C)(C)CCCNC(=O)N(c1cccc(C(F)(F)F)c1)c1nc(-c2ccc[n+]([O-])c2)cs1` [I-110] yielded an EC50 greater than 1 µM.
Work on `O=c1cc(-c2cc(Nc3cccc(C(F)(F)F)c3)no2)cc[nH]1` [I-139] yielded an EC50 of 0.1 to 1 µM.
